Data set [1] concerns LAN5 human neuroblastoma cells. As to the kind of experiment: Neuronal cell sprouting (neurite length). The note with it: 10 μM, 7 days; for average length of the neurites: ± SD, untreated 21.8 ± 8.8. The format is cell-based. The procedure: LAN5 human neuroblastoma cells were seeded in 6-well plates (25.000 cells/well) in DMEM (Dulbecco's Modified Eagle's Medium) medium, additioned with 10% -fetal serum and 40 micrograms/ml gentamycin. After 24 hours, the enol tautomer of 3-indolylpyruvic acid or its derivatives, at an end concentration of 10 μM was added to the culture medium. The treatment was continued for 7 days, with medium replacement and addition of the compound under test every three days. At +7 days the cells were photopgraphed, using a Leitz Dialux 20 microscope. Then, neurite length was measured.
The results, reported in the following Table, express, in microns, the average length of the neurites for each treatment; ± is the standard deviation: […]

The conditions of data set [2]: cited from earlier work.
The test system of data set [3] is Human melanoma cells (A2058 line). As to the kind of experiment: Melanoma cell invasion through Matrigel. The format is cell-based. The following applies: mean of three experiments ± SD. The text has this: Matrigel is an extracellular biological matrix extracted from the Englebreth-Holm-Swarm murine sarcoma, composed of the major components of the basement membrane like laminin, entactin, collagen IV and proteoglycans. At room temperature, Matrigel forms a gel that can promote the growth of primary and continuous cell lines, and moreover can act as medium (substrate) for the adhesion, the differentiation, the migration and the invasion of tumor cell lines. Due to such features, a Matrigel test is commonly used in order to characterize the activity of substances capable of interfering with the motility of tumor cells and of inflammatory response cells. The test is conducted in wells partitioned by an 8 micron pore size membrane: Matrigel (12.4 micrograms) is uniformly spread on the membrane, whereas a chemoattractant (600 microliters), consisting of the supernatant of a murine hembryo cell line (3T3) is inserted in the bottom section of the well. The cells to be tested are seeded in the top section of the well, whereas the compounds that could interfere with their motility are placed above as well as below the membrane, so as to prevent the formation of a concentration gradient. At the end of the experiment, the cells that have crossed the membrane are counted.
Human melanoma cells (A2058 line) were cultured in MEM medium, in a 5% CO2 at 37° C. Having reached the desired growth level, the (100.000) cells were seeded in the top section of the well. The enol of 3-indolylpyruvic acid and its salts, solubilized in the cell culture medium were placed in the top and bottom section of the well.

Data set [4] can be described thus: Incubation in rat tissue homogenates, enol form versus keto form. The format is in vitro ADME. The following applies: rat tissue homogenates. The text has this: The near-pure enol tautomer of 3-indolylpyruvic acid, obtained by the method described above in examples 1 and 2, was investigated on rat tissue homogenates, in order to highlight its participation in the methabolic pathways characterizing the use of tryptophan and of its derivatives in mammalian cells. […] This phenomenon, ascribed to the presence in biological fluids of a specific tautomerase already reported in literature, allows the enol form to be subjected to biochemical transformations by specific enzymes active on the indoles. In particular, when the enol form of the ketoacid is incubated in rat liver homogenates, a gradual transformation of the enol of 3-indolylpyruvic acid in tryptophan is observed: the transformation is rather linear in time, is independent from the pH—at least in the 6.5÷7.5 interval—and it leads to the conversion of over the 50% of the ketoacid in 5 hours.

The test system of data set [5] is rats. As to the kind of experiment: Pharmacological tests in rats, oral and IP. The class given is in vivo, rat. The following applies: keto form solubilized in 0.1M NaOH.

The values that follow come from patent US20050208125A1, “Substantially pure solid form of the enol tautomer of 3-indolypyruvic acid for use in the treatmetn of central nervous system disturbances” (priority 2002, published 2005).

As to `O=C(O)Cc1c[nH]c2ccccc12` [3-Indolylacetic acid, reference compound], in data set [1], the “effect on neurite length (in words)” value is “do not influence neurite length” and the “average length of the neurites” value worked out at 23.3 ± 10.5 micrometers.
For `O=C(O)C(O)Cc1c[nH]c2ccccc12` (stereo not shown) [3-Indolyllactic acid], in data set [1], the “effect on neurite length (in words)” value is “noticeable effects on neurite length” and the “average length of the neurites” value amounted to 39.7 ± 11.8 micrometers.
As to `O=C(O)C(=O)Cc1c[nH]c2ccccc12` [3-indolylpyruvic acid], in data set [2] (Schwarz 1961), the “time in which UV spectrum of the enol tautomer converted to that of the keto tautomer” value is on record as “over 2 hours”. The “time in which largely converted to the keto form” value in data set [2] (solution at pH 8.0, Schwarz and Bitancourt 1960) is 20 min.
For `O=C(O)Cc1c[nH]c2ccc(O)cc12` [5-Hydroxy-Indolylacetic acid, reference compound], in data set [1], the “effect on neurite length (in words)” value is recorded as “do not influence neurite length” and the “average length of the neurites” value was determined as 25.7 ± 13.2 micrometers.
Turning to `O=C([O-])C(O)=Cc1c[nH]c2ccccc12.O=C([O-])C(O)=Cc1c[nH]c2ccccc12.[Ca+2]` [Ca salt, calcium salt of the enol form of 3-indolylpyruvic acid], the Inhibition % in data set [3] (70 μM) came to 38 ± 10%; in data set [3] (140 μM), 82 ± 6%. Besides, the “average length of the neurites” value in data set [1] was found to be 32.7 ± 8.3 micrometers.
For the compound `O=C([O-])C(O)=Cc1c[nH]c2ccccc12.[K+]` [K salt, potassium salt of the enol tautomer of 3-indolylpyruvic acid], the figures for the Inhibition % in data set [3] (125 μM) and in data set [3] (250 μM) were 51 ± 3% and 78 ± 3%, respectively. The “average length of the neurites” value in data set [1] came out at 44.1 ± 12.1 micrometers.
The matching figures for `O=C([O-])C(O)=Cc1c[nH]c2ccccc12.[Li+]` [Li salt, lithium salt of the enol tautomer of 3-indolylpyruvic acid]: 48 ± 7%, 91 ± 5% and 29.4 ± 8.5 micrometers.
In the case of `O=C([O-])C(O)=Cc1c[nH]c2ccccc12.O=C([O-])C(O)=Cc1c[nH]c2ccccc12.[Mg+2]` [Mg salt, magnesium salt of the enol form of 3-indolylpyruvic acid], the results for the Inhibition % in data set [3] (65 μM) and in data set [3] (130 μM) were 46 ± 14% and 66 ± 7%, respectively. Further, the “average length of the neurites” value in data set [1] was 40.1 ± 17.5 micrometers.
Turning to `O=C([O-])C(O)=Cc1c[nH]c2ccccc12.[Na+]` [Na salt, sodium salt of the enol form of 3-indolylpyruvic acid], the Inhibition % in data set [3] (125 μM) is 52 ± 1%; in data set [3] (250 μM) it was 78 ± 3%. In addition, in data set [1], the “average length of the neurites” value came out at 28.3 ± 16.4 micrometers.
Turning to `O=C(O)C(=O)Cc1c[nH]c2ccccc12` [keto form, reference compound], the “transformation to tryptophan or to 3-indolyl-lactic acid” value in data set [4] is “no significant transformations”. Further, in data set [5], the “effects on the considered pharmacological parameters” value is given as “no apparent effects”.
